What all share (type): functional, cell-based
Data set [1] addresses T1, Solute carrier family 22 member 4 (Rattus norvegicus, UniProt Q9R141).
T1 sequence (Q9R141 whole entry): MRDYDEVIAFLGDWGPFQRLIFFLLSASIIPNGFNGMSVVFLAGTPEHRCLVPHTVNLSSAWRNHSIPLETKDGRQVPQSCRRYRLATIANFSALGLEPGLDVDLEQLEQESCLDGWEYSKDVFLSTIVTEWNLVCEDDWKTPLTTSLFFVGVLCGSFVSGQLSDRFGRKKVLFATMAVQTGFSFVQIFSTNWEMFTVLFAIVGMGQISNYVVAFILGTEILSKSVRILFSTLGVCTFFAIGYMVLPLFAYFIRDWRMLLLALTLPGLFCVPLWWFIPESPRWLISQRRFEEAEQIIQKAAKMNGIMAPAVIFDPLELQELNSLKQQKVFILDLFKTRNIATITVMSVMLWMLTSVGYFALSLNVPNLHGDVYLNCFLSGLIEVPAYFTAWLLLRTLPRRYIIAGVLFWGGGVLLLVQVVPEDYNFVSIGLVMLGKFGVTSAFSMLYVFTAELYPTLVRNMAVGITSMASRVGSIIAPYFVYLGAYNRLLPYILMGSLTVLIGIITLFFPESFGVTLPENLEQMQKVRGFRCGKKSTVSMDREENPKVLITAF
The data set can be described thus: TP_TRANSPORTER: inhibition of TEA uptake in Octn1-HRPE cells.

In data set [2] the target is T2, OCTN1 (Solute carrier family 22 member 4, SLC22A4) (Rattus norvegicus, UniProt Q9R141).
T2 sequence (Q9R141 whole entry): T1 sequence (Q9R141 whole entry)
The data set can be described thus: TP_TRANSPORTER: inhibition of TEA uptake by Imipramine at 1mM in Octn1-HRPE cells. Set-up: scale not given: the % may be the effect or the level left. As to conditions: human, HRPE cells that express Octn1, probe TEA (tetraethylammonium); read-out: Activity.

For data set [3], the target named is T1, Solute carrier family 22 member 4. As to the kind of experiment: TP_TRANSPORTER: inhibition of TEA uptake by Amiloride at 1mM in Octn1-HRPE cells. Set-up: scale not given: the % may be the effect or the level left. To be noted: human, 1000 µM.
The target of data set [4] is T2, OCTN1 (Solute carrier family 22 member 4, SLC22A4). As to the kind of experiment: TP_TRANSPORTER: inhibition of TEA uptake by 1-methyl-4-phenylpyridinium at 5mM in Octn1-HRPE cells. Set-up: scale not given: the % may be the effect or the level left. To be noted: human, HRPE cells that express Octn1, probe TEA (tetraethylammonium); read-out: Activity.
Data set [5] has the same target. As to the kind of experiment: TP_TRANSPORTER: inhibition of TEA uptake by Verapamil at 5mM in Octn1-HRPE cells. Further details: scale not given: the % may be the effect or the level left. To be noted: human, HRPE cells that express Octn1, probe TEA (tetraethylammonium); read-out: Activity.

In data set [1], `CC[N+](CC)(CC)CC` [TETRYLAMMONIUM] gave a 50% inhibitory concentration (IC50) of 1000 µM.

Take `CNCCCN1c2ccccc2CCc2ccccc21` [DESIPRAMINE]: the IC50 in data set [1] was found to be 80 µM.

Regarding `CN(C)c1nc(N)c(C(=O)NC(=N)N)nc1Cl`, 200 µM corresponded to half-maximal inhibition in data set [1] (IC50).

Take `CN(C)CCCN1c2ccccc2CCc2ccccc21` [IMIPRAMINE]: the activity at 1000 µM in data set [2] turned out to be 31%.

In turn, `N=C(N)NC(=O)c1nc(Cl)c(N)nc1N` [AMILORIDE] came in with an Activity in data set [3] of 79%.

In the case of `CN/C(=N/CCSCc1nc[nH]c1C)NC#N` [CIMETIDINE], the half-inhibitory concentration (IC50) in data set [1] was found to be 1500 µM.

On to `C[n+]1ccc(-c2ccccc2)cc1`, for which the activity at 5000 µM in data set [4] was 62%.

As to `COc1ccc(CCN(C)CCCC(C#N)(c2ccc(OC)c(OC)c2)C(C)C)cc1OC` (centres undefined) [VERAPAMIL], the activity at 5000 µM in data set [5] amounted to 20%.

Consider `CCN(CC)CCNC(=O)c1ccc(N)cc1` [PROCAINAMIDE], for which the midpoint of inhibition in data set [1], the IC50, lay at 1000 µM.

What is called IC50 is the concentration that inhibits the measured activity by half.
